Measured values reported in patent US6994981B2, “Modulators of paraptosis and related methods” (The Buck Institute, priority 2002, dated 2006).
Residues, ends and D or L forms follow the SMILES beside them. *: point of attachment. Cbz = O=C(OCc1ccccc1)*; CH2F = FC*

How the values were obtained:
[1] = tested on: paraptosis induced by caspase 7, caspase 8 or caspase 9; test: Inhibition of paraptosis induced by caspases; assay type: cell-based
Experimental: (§1) Test compounds were added to IGFIR-IC transfected 293T cells at the time of transfection.

[2] = tested on: striatal, cortical, and hippocampal neurons; test: SP-induced cell death in primary striatal, cortical and hippocampal neurons, trypan blue viability and staining; assay type: cell-based, rat; conditions: for effect on SP-induced cell death in neurons: caspase inhibitors at 50 μM
Experimental: Rat neuronal primary cell cultures were also used to assay for inducers and inhibitors of paraptosis. Briefly, primary striatal, cortical and hippocampal cultures were prepared from 17-day-old Sprague-Dawley rat embryos (B&K). The tissue was dissected, minced and trypsinized for five minutes using 0.25% trypsin (Cell Grow). After the addition of 10% horse serum (Life Technologies) to inhibit the trypsin, the cell suspension was triturated 15–20 times with a 10 ml syringe and centrifuged for five minutes at 800×g. The pellet was resuspended in MEM-PAK (UCSF Cell Culture facility), supplemented with 2.02 gm glucose, 2 mM GLUTAMAX™ (Life Technologies) and penicillin/streptomycin (100 U/ml). The suspension was filtered through a […] cell strainer and the final culture medium contained 5% horse serum. Subsequently, 3-4×10^5 cells per Cm^2 were seeded onto either poly-D-lysine precoated 8-well chamber slides (Becton-Dickson Labware) or 96 well plates precoated with […] of poly-D-lysine (Sigma) in water. After 30 minutes of incubation time, unattached cells were removed together with the medium and replaced with glucose enriched MEM-PAK plus 5% horse serum. The cultures were then incubated at 37° C. in 95% air 5% carbon dioxide with 95% humidity. Cultures were used for experiments between day 1 and day 7 when glial contamination was at a minimum.
Primary neuronal cells were prepared as described in Example I. SP (SIGMA) at a concentration of 0.1 nM–100 μM was added 24–48 hrs after seeding, in the presence of 2.5% horse serum. When the cultures were maintained for more than 5 days, 10 μM cytosine arabinoside was added for 24 hours, beginning 3 days after plating the cells. Viability was quantified by trypan blue staining of the total cell population.
The following compounds were added at the same time as SP in the indicated experiments: 5 nM L-732, 138; 1 nM L-733,060; 1 μg/ml Actinomycin D or 1 μg/ml Cycloheximide. All of these compounds were obtained from SIGMA. The caspase inhibitors zVAD.fmk and BAF were added at 50 μM and obtained from Enzyme System Products, Livermore, Calif.
Either neuronal primary cultures or human embryonic kidney 293T cells were fixed with 4% paraformaldehyde and stained with 0.5 μg/ml DAPI (Molecular Probes) or Hoechst(SIGMA). […]
(§2) The protein kinase inhibitors were added 30 min before SP exposure at the following concentrations: 10 μM Rp-8-Br-cAMPS (adenosin 3′,5′-cyclic monophosphorothioate, 8-bromo-, Rp-isomer, sodium salt) which is a PKA inhibitor; 50 nM Calphostin C, which is a PKC inhibitor; 10 μM PD 98059 which is a MAPKK (MEK) inhibitor. These compounds were obtained from Calbiochem. Viability was quantified by trypan blue staining of the total cell population.

[3] = tested on: 293T cells transfected with NK1R; test: SP-induced, NK1R-mediated cell death in 293T cells transfected with NK1R, trypan blue and staining; assay type: cell-based, human; conditions: for effect on NK1R-mediated cell death in 293T cells: caspase inhibitors at 50 μM
Experimental: (§3) Human embryonic kidney 293T cells were grown as described in Example I. Transient transfection was performed using Superfect (Qiagen) as described by the manufacturer. Briefly, 2×10^5 cells/well were seeded into 35 mm wells 16 hr prior to transfection. Superfect:DNA complexes were added at a 5 μl:2 μg ratio for 3 hr; then the medium was replaced and after 24 hr SP was added. At 24–48 hr after addition of SP cell death was quantified as follows: the media containing floating cells were collected and centrifuged 10 min at 2000×g, the pellet was resuspended in PBS/trypan blue and the cells were counted using a hematocytometer. When other compounds were used, they were added at the same time as SP: zVAD.fmk or BAF was added at 50 μM and obtained from Enzyme System Products, Livermore, Calif.
Briefly, the method entailed cloning the full-length (1.2 kb) NK1R cDNA (Genbank Accession No. M31477) by RT-PCR from adult rat hippocampal RNA into the XbaI/EcoRI sites of the vector pcDNA3.1 (Invitrogen), using the following oligonucleotides: forward 5′[…] 3′ (SEQ ID NO:2); reverse 5′[…] 3′ (SEQ ID NO:3).
Cells were stained according to the manufacturer's instructions (Clontech). Briefly, cellswere washed with binding buffer and incubated with FITC-Annexin-V or EGFPAnnexin-V for 5–10 min and fixed with 4% paraformaldehyde.
Cells were fixed 10 min with 4% paraformaldehyde and stained according to the manufacturer's instructions (Promega).
as §2

[4] = tested on: caspase-8 transfected cells; test: Apoptosis induced by over-expression of caspase-8 in 293T cells; assay type: cell-based, human; conditions: caspase inhibitors at 50 μM
Experimental: as §3

[5] = tested on: paraptosis; conditions: cited from earlier work
[6] = tested on: 293T cells; test: Induction of paraptosis in 293T cells, LDH cell death assay; assay type: cell-based, human; conditions: 293T cells
Experimental: Human embryonic kidney 293T cell line cells were used to assay for inducers and inhibitors of paraptosis. These cells were cultured in high glucose DMEM (Life Technologies) supplemented with 10% FBS (Sigma) and 1% penicillin/streptomycin (Life Technologies). The cultures were incubated at 37° C. in 95% air 5% carbon dioxide with 95% humidity.
(§4) Subsequently, compounds were added to 293T cells and/or rat neuronal primary cell culture cells in order to determine if the compounds could induce paraptosis. Cell death was assayed using the lactate dehydrogenase (LDH) assay, in which the relative amount of enzyme released from dying cells in the medium is measured by following the disappearance of nicotinamide adenine dinucleotide, reduced form (NADH) in the following reaction: pyruvate+NADH <−>NAD^++ lactate. Briefly, 50 μl of culture medium for either 293T cells or 100 μl of culture medium for neuronal primary culture were dispensed in a 96 well plate to which 100 μl of a solution consisting of 5 mg of NADH dissolved in 20 ml of PBS and 0.5 ml of 100 mM NaPyruvate. NADH disappearance was assessed by kinetic photmetric readings at a 340 nm wavelength at 19 minute intervals over a period of 2 hours and 30 minutes.
Constructs of pcDNA3 containing procaspase-7 or procaspase-8 were transiently transfected into 293T cells using Lipofect-Amine (GIBCO-BRL) according to the manufacturer's instructions. Briefly, 1×10^6 293T cells were seeded in 6 cm dishes, and transfected the next day using a ratio of DNA:Lipofect-Amine of 1 μg:5 μl. Transfection efficiency was 60–80% for 293T cells, as determined by X-gal staining after transfection of a β-galactosidase construct.

[7] = tested on: rat neuronal primary cell cultures; test: Induction of paraptosis in rat neuronal primary cell cultures, LDH cell death assay; assay type: cell-based
Experimental: Rat neuronal primary cell cultures were also used to assay for inducers and inhibitors of paraptosis. Briefly, primary striatal, cortical and hippocampal cultures were prepared from 17-day-old Sprague-Dawley rat embryos (B&K). The tissue was dissected, minced and trypsinized for five minutes using 0.25% trypsin (Cell Grow). After the addition of 10% horse serum (Life Technologies) to inhibit the trypsin, the cell suspension was triturated 15–20 times with a 10 ml syringe and centrifuged for five minutes at 800×g. The pellet was resuspended in MEM-PAK (UCSF Cell Culture facility), supplemented with 2.02 gm glucose, 2 mM GLUTAMAX™ (Life Technologies) and penicillin/streptomycin (100 U/ml). […]
as §4, with “Briefly, 50 μl of culture medium for either 293T cells or 100 μl of culture medium for neuronal primary culture were dispensed in a 96 well plate to which 100 μl of a solution consisting of 5 mg of NADH dissolved in 20 ml of PBS and 0.5 ml of 100 mM NaPyruvate.” left out

[8] = tested on: IGFIR-IC transfected 293T cells; test: Inhibition of IGFIR-IC induced paraptosis in transfected 293T cells, LDH assay; assay type: cell-based, human; conditions: for effect on IGFIR-induced paraptosis: concentration not given
Experimental: Paraptosis was induced in 293T cells by expressing the intracellular domain of the insulin-like growth factor I receptor (IGFIR-IC) in these cells using transient transfection as described above.
as §1
The TRAF2 dominant negative mutant contains a deletion of the amino terminal 271 amino acids of the protein. The ratio of IGFIR-IC:AIP1 and IGFIR-IC:TRAF2DN was 1:3. […] Antisense oligonucleotide constructs for JNK1 or JNK2 (50–100 nM) were transfected into 293T cells one day before transfection with the IGFIR-IC construct. For all inhibition assays, cell viability was measured using the LDH assay.

[9] = tested on: ERK-1/2; test: Western blot of ERK-1/2 phosphorylation in 293T cells expressing NK1R; assay type: cell-based, human; conditions: 10 μM
Experimental: For the transfected 293T cells, cells were washed with cold PBS after incubation with SP the time indicate and homogenized on lysis buffer (150 mM NaCl, 1% Triton X-100, 50 mM Tris HCL pH8.0). Cytoplasmic extracts were collected after 10 min centrifugation at 14,000 rcf. Total amount of protein was quantified by Bradford assay and electrophoresis of equal amounts of total protein was performed on SDS-polyacrylamide gels. Separated proteins were transferred to polyvinylidene fluoride membranes at 4° C. for Western blot analysis. Membranes were probed with a 1:1000 dilution of anti-ERK-1/2 or anti phospho-ERK-1/2 (BioSource). The blots were incubated in a horseradish peroxidase coupled secondary antibody for 1 h followed by enhanced chemiluminescence detection of the proteins with […]™ ECL detection (Amersham, Arlington Heights, Ill.). For striatal neurons, total ERK-1/2 was immunoprecipitated using superparamagnetic Microbeads conjugated to protein A, following manufacture's instructions (MACS, Miltenyi Biotec), and then developed by Western blot against either anti-ERK-1/2 or anti phospho-ERK-1/2.

[10] = tested on: SP-induced paraptosis; test: Inhibition of SP-induced paraptosis, cells not specified; assay type: cell-based; conditions: concentration not given

## COC(=O)CC(NC(=O)OC(C)(C)C)C(=O)CF (centres unmarked) [BAF, Box-aspartyl.fmk]
[1]
  inhibition of paraptosis induction by caspase-7 and caspase-8: subject to inhibition
[2]
  effect on SP-induced cell death in neurons: not inhibited
[3]
  effect on NK1R-mediated cell death in 293T cells: lack of effect
[4]
  effect on apoptosis induced by over-expression of caspase-8: completely abolished
[5]
  effect of caspase inhibitors on paraptosis: lack of effect

## CCCCCCCCCCCCC/C=C/[C@@H](O)[C@H](CO)NC(C)=O [C2 ceramide, N-Acetyl-D-sphingosine]
[6]
  concentration at which found to induce paraptosis: 15 to 100 µM
[7]
  concentration at which found to induce paraptosis: 15 to 100 µM

## N[C@@H](CCC(=O)O)C(=O)O [Glutamic Acid, (S)-2-aminopentanedioic acid]
[7]
  concentration at which found to induce paraptosis: 50 to 500 µM

## COc1cccc(-c2cc(=O)c3ccccc3o2)c1N [PD 98059]
[8]
  effect on IGFIR-induced paraptosis: not blocked
[2]; added 30 min before SP: 10 μM PD 98059, 50 nM Calphostin C, 10 μM Rp-8-Br-cAMPS
  effect on neuronal cell death in response to SP: completely blocked
[3]; 10 μM
  effect on non-neuronal NK1R-mediated pcd: inhibited
[9]
  effect on phosphorylation of ERK-1/2: effectively reduced

## N#CC(=C(/N)Sc1ccccc1N)/C(C#N)=C(/N)Sc1ccccc1N [UO126]
[8]
  effect on IGFIR-induced paraptosis: can be inhibited
[10]
  effect on SP-induced paraptosis: can be inhibited

## COC(=O)C[C@H](NC(=O)[C@H](C)NC(=O)[C@@H](NC(=O)OCc1ccccc1)C(C)C)C(=O)CF [zVAD.fmk] (Cbz-Val-Ala-Asp(OMe)-CH2F)
[1]
  inhibition of paraptosis induction by caspase-7 and caspase-8: subject to inhibition
[2]
  effect on SP-induced cell death in neurons: not inhibited
[3]
  effect on NK1R-mediated cell death in 293T cells: lack of effect
[4]
  effect on apoptosis induced by over-expression of caspase-8: completely abolished
[5]
  effect of caspase inhibitors on paraptosis: lack of effect

B1: AIP-1: Alg-2 interacting protein 1, co-transfected with the IGFIR-IC construct (protein, UniProt Q8WUM4 2-868, looked up)
Programmed cell death …: ATFISVQLKKTSEVDLAKPLVKFIQQTYPSGGEEQAQYCRAAEELSKLRRAAVGRPLDKHEGALETLLRYYDQICSIEPKFPFSENQICLTFTWKDAFDKGSLFGGSVKLALASLGYEKSCVLFNCAALASQIAAEQNLDNDEGLKIAAKHYQFASGAFLHIKETVLSALSREPTVDISPDTVGTLSLIMLAQAQEVFFLKATRDKMKDAIIAKLANQAADYFGDAFKQCQYKDTLPKEVFPVLAAKHCIMQANAEYHQSILAKQQKKFGEEIARLQHAAELIKTVASRYDEYVNVKDFSDKINRALAAAKKDNDFIYHDRVPDLKDLDPIGKATLVKSTPVNVPISQKFTDLFEKMVPVSVQQSLAAYNQRKADLVNRSIAQMREATTLANGVLASLNLPAAIEDVSGDTVPQSILTKSRSVIEQGGIQTVDQLIKELPELLQRNREILDESLRLLDEEEATDNDLRAKFKERWQRTPSNELYKPLRAEGTNFRTVLDKAVQADGQVKECYQSHRDTIVLLCKPEPELNAAIPSANPAKTMQGSEVVNVLKSLLSNLDEVKKEREGLENDLKSVNFDMTSKFLTALAQDGVINEEALSVTELDRVYGGLTTKVQESLKKQEGLLKNIQVSHQEFSKMKQSNNEANLREEVLKNLATAYDNFVELVANLKEGTKFYNELTEILVRFQNKCSDIVFARKTERDELLKDLQQSIAREPSAPSIPTPAYQSSPAGGHAPTPPTPAPRTMPPTKPQPPARPPPPVLPANRAPSATAPSPVGAGTAAPAPSQTPGSAPPPQAQGPPYPTYPGYPGYCQMPMPMGYNPYAYGQYNMPYPPVYHQSPGQAPYPGPQQPSYPFPQPPQQSYYPQQ
[8]; co-transfected with the IGFIR-IC construct, ratio 1:3
  inhibition of IGFIR-IC induced paraptosis: able to inhibit IGFIR-IC induced paraptosis
[10]
  effect on SP-induced paraptosis: can be inhibited

B2: p35: caspase inhibitor (protein, UniProt P08160 1-299, looked up)
Early 35 kDa protein: MCVIFPVEIDVSQTIIRDCQVDKQTRELVYINKIMNTQLTKPVLMMFNISGPIRSVTRKNNNLRDRIKSKVDEQFDQLERDYSDQMDGFHDSIKYFKDEHYSVSCQNGSVLKSKFAKILKSHDYTDKKSIEAYEKYCLPKLVDERNDYYVAVCVLKPGFENGSNQVLSFEYNPIGNKVIVPFAHEINDTGLYEYDVVAYVDSVQFDGEQFEEFVQSLILPSSFKNSEKVLYYNEASKNKSMIYKALEFTTESSWGKSEKYNWKIFCNGFIYDKKSKVLYVKLHNVTSALNKNVILNTIK
[1]
  inhibition of paraptosis induction by caspase-7 and caspase-8: subject to inhibition
[5]
  effect of caspase inhibitors on paraptosis: lack of effect
